Measurements taken from patent US7390660B2, “Methods for growing mammalian cells in vitro” (Hoffman-La Roche Inc., priority 2002, dated 2008).
Several values for one entry are separate records, joined by “and”; a condition that tells them apart may be missing. Equal values may be shown once.

Columns and labels:
[1] = system: myeloma cell line (Sp2/0); assay: Fermentation in dialysis mode, 1000 L production bioreactor, with addition of citrate; type: cell-based
Excerpt: The cells of a myeloma cell line (Sp2/0) were thawed and expanded up to 2 L in spinner flasks over a period of approximately 14 days for the inoculation of a 10 L bioreactor. After 2 to 4 days the cells were split or transferred to a 100 L bioreactor and further cultivated for 2 to 4 days. The 100 L bioreactor served as inoculum for the 1000 L production bioreactor. For each inoculum step a starting cell density of about 0.2 to about 0.4×10^6 viable cells per mL was used.
The production bioreactor ran in a dialysis mode. The bioreactor was a stirred tank reactor with a working volume of about 900 to about 1300 L. Aeration was performed by sparging. The following process parameters were controlled: pH, temperature, pO^2, pressure and agitation rate. The bioreactor was equipped for dialysis mode with hollow fibre cartridges. The cartridges were connected to an external loop with a dialysis medium reservoir. The dialysis of the culture was started 2 to 4 days after inoculation. During fermentation the reservoir was repeatedly filled up with fresh dialysis medium. Some medium components were fed as separate sterile solutions to the bioreactor. These comprise glucose, amino acids, vitamins, and trace elements.
Fermentation was terminated after a maximum of 16 days.
The citrate was added to the fermentation medium and to the dialysis medium.

[2] = system: myeloma cell line (Sp2/0); assay: Fermentation in fed batch mode, 10 L bioreactor, with addition of citrate; type: cell-based; conditions: 2.4 mmol/L citrate, 10 L scale, single runs and mean
Method: The cells of a myeloma cell line were thawed (Sp2/0) and expanded up to 2 L in spinner flasks for the inoculation of a 10 L bioreactor. The production bioreactor ran in a fed batch mode. The bioreactor was a stirred tank reactor with a working volume of from about 9 to about 13 L. Aeration was performed by sparging. The following process parameters were controlled: pH, temperature, pO2, pressure and agitation rate. Feeding of the culture was started 2 to 4 days after inoculation. Components including glucose, amino acids, vitamins, and trace elements were fed as separate sterile solutions to the bioreactor. Fermentation was terminated after maximum of 10 days.

For O=C(O)CC(O)(CC(=O)O)C(=O)O [Citrate], the “Amount of alkali required to adjust a constant pH value reduced to, % of the control” value [1] was “about 34%”, the “Reduction of the specific consumption rate for glucose” value ([1]; 1000 L scale, versus runs without citrate, printed 'reduced ... about 44%') was “about 44%” and the “Specific consumption rate of glucose” value [2] was 443 μg/10^6 cells x day and 715 μg/10^6 cells x day and 451 μg/10^6 cells x day. The “Specific production rate of lactate” value [2] was 230 μg/10^6 cells x day and 392 μg/10^6 cells x day and 304 μg/10^6 cells x day and the “Specific consumption rate of glucose” value ([2]; mean) was 536 μg/10^6 cells x day.
